# From paper PMC11995724, “Antibiotic target discovery by integrated phenotypic and activity-based profiling of electrophilic fragments” (Cell chemical biology, 2025)
# Assay: in vitro
# Settings: human, hek293t cells
row,Structure (SMILES),"viability at 48 h, 25 µM [%]"
1,"CC(C)NC(=O)C(C#N)=Cc1ccc(Cl)c(Cl)c1 [9-M07, 2-cyano-3-(3,4-dichlorophenyl)-N-(propan-2-yl)prop-2-enamide]",30.2
2,"CSc1ccc(C=C(C#N)C(=O)Nc2ccc(C(=O)O)cc2)cc1 [9-M08, 4-{2-cyano-3-[4-(methylsulfanyl)phenyl]prop-2-enamido}benzoic acid]",118
3,"N#CC(=Cc1ccsc1)C(=O)Nc1cccc2ccccc12 [9-M09, 2-cyano-N-(naphthalen-1-yl)-3-(thiophen-3-yl)prop-2-enamide]",120
4,"Cn1cc(C=C(C#N)C(=O)Nc2ccc(Oc3ccccc3)cc2)cn1 [9-M10, 2-cyano-3-(1-methyl-1H-pyrazol-4-yl)-N-(4-phenoxyphenyl)prop-2-enamide]",109
5,"CC(C)NC(=O)C(C#N)=Cc1ccc(C#N)cc1 [9-M11, 2-cyano-3-(4-cyanophenyl)-N-(propan-2-yl)prop-2-enamide]",123
6,"CCc1oc2ccccc2c1C=C(C#N)C(=O)NC1CC1 [9-M12, 2-cyano-N-cyclopropyl-3-(2-ethyl-1-benzofuran-3-yl)prop-2-enamide]",74.5
7,"COc1c(Cl)cc(Cl)cc1C=C(C#N)C(N)=O [9-M13, 2-cyano-3-(3,5-dichloro-2-methoxyphenyl)prop-2-enamide]",137
8,"N#CC(=Cc1cnc(-c2ccccc2)nc1)C(=O)NCc1ccco1 [9-M14, 2-cyano-N-[(furan-2-yl)methyl]-3-(2-phenylpyrimidin-5-yl)prop-2-enamide]",143
9,"N#CC(=Cc1ccccc1)C(=O)NC1CC1 [9-M15, 2-cyano-N-cyclopropyl-3-phenylprop-2-enamide]",128
10,"C=CCNC(=O)C(C#N)=Cc1cnn(-c2ccc(Cl)cc2)c1 [9-M16, 3-[1-(4-chlorophenyl)-1H-pyrazol-4-yl]-2-cyano-N-(prop-2-en-1-yl)prop-2-enamide]",115
11,"COCCNC(=O)C(C#N)=Cc1sccc1C [9-M17, 2-cyano-N-(2-methoxyethyl)-3-(3-methylthiophen-2-yl)prop-2-enamide]",131
12,"Cc1cnc(-c2cccc(NC(=O)C(C#N)=Cc3ccco3)c2)o1 [9-M18, 2-cyano-3-(furan-2-yl)-N-[3-(5-methyl-1,3-oxazol-2-yl)phenyl]prop-2-enamide]",116
13,"Cc1ccc(NC(=O)C(C#N)=Cc2ccsc2)c(C)c1 [9-M19, 2-cyano-N-(2,4-dimethylphenyl)-3-(thiophen-3-yl)prop-2-enamide]",102
14,"Cc1nn(C)c(C)c1C=C(C#N)C(=O)Nc1cccc(Cl)c1C [9-M20, N-(3-chloro-2-methylphenyl)-2-cyano-3-(1,3,5-trimethyl-1H-pyrazol-4-yl)prop-2-enamide]",111
15,"N#CC(=Cc1ccccc1OC(F)F)C(=O)Nc1ccccc1Cl [9-M21, N-(2-chlorophenyl)-2-cyano-3-[2-(difluoromethoxy)phenyl]prop-2-enamide]",119
16,"N#CC(=Cc1cccs1)C(=O)Nc1cccc2ccccc12 [9-M22, 2-cyano-N-(naphthalen-1-yl)-3-(thiophen-2-yl)prop-2-enamide]",100
17,"Cc1ccoc1C=C(C#N)C(=O)NCCc1ccccc1 [9-N03, 2-cyano-3-(3-methylfuran-2-yl)-N-(2-phenylethyl)prop-2-enamide]",93.9
18,"CC(NC(=O)C(C#N)=Cc1cccc(Cl)c1Cl)c1ccccc1 (stereo not shown) [9-N04, 2-cyano-3-(2,3-dichlorophenyl)-N-(1-phenylethyl)prop-2-enamide]",3.94
19,"N#CC(=Cc1ccc(Cl)c([N+](=O)[O-])c1)C(=O)N1CCCC1 [9-N05, 3-(4-chloro-3-nitrophenyl)-2-(pyrrolidine-1-carbonyl)prop-2-enenitrile]",5.4
20,"N#CC(C(=O)NC1CCCCC1)=C1N=C(N)c2ccccc21 [9-N06, 2-(3-amino-1H-isoindol-1-ylidene)-2-cyano-N-cyclohexylacetamide]",80.2
21,"Cc1cc(C=C(C#N)C(=O)Nc2cn[nH]c2)c(C)n1-c1ccc(F)cc1 [9-N07, 2-cyano-3-[1-(4-fluorophenyl)-2,5-dimethyl-1H-pyrrol-3-yl]-N-(1H-pyrazol-4-yl)prop-2-enamide]",95.1
22,"N#CC(=Cc1c[nH]c2ccccc12)C(=O)Nc1cccc2ncccc12 [9-N08, 2-cyano-3-(1H-indol-3-yl)-N-(quinolin-5-yl)prop-2-enamide]",101
23,"Cc1cc(CNC(=O)C(C#N)=Cc2ccco2)ccc1N(C)C [9-N09, 2-cyano-N-{[4-(dimethylamino)-3-methylphenyl]methyl}-3-(furan-2-yl)prop-2-enamide]",113
24,"N#CC(=Cc1ccc(O)cc1)C(=O)NCc1ccco1 [9-N10, 2-cyano-N-[(furan-2-yl)methyl]-3-(4-hydroxyphenyl)prop-2-enamide]",103
25,"N#CC(=Cc1ccc2ccccc2c1)C(=O)NCc1ccccc1 [9-N11, N-benzyl-2-cyano-3-(naphthalen-2-yl)prop-2-enamide]",123

row,Structure (SMILES),"viability at 48 h, 25 µM [%]"
1,"COc1cc(C=C(C#N)C(=O)NC(C)C)sn1 [9-N12, 2-cyano-3-(3-methoxy-1,2-thiazol-5-yl)-N-(propan-2-yl)prop-2-enamide]",115
2,"Cc1ccc(C)c(C=C(C#N)C(=O)Nc2nccs2)c1 [9-N13, 2-cyano-3-(2,5-dimethylphenyl)-N-(1,3-thiazol-2-yl)prop-2-enamide]",126
3,"CCCNC(=O)C(C#N)=Cc1cnc2c(C)cccn12 [9-N14, 2-cyano-3-{8-methylimidazo[1,2-a]pyridin-3-yl}-N-propylprop-2-enamide]",120
4,"Cc1c(C=C(C#N)C(=O)Nc2cnc3ccccc3c2)cc(C#N)n1C [9-N15, 2-cyano-3-(5-cyano-1,2-dimethyl-1H-pyrrol-3-yl)-N-(quinolin-3-yl)prop-2-enamide]",111
5,"COc1ccc(-n2c(C)cc(C=C(C#N)C(=O)N(C)OC)c2C)cc1 [9-N16, 2-cyano-N-methoxy-3-[1-(4-methoxyphenyl)-2,5-dimethyl-1H-pyrrol-3-yl]-N-methylprop-2-enamide]",88.4
6,"N#CC(=Cc1cccc(F)c1)C(=O)Nc1ccc(SC(F)F)cc1 [9-N17, 2-cyano-N-{4-[(difluoromethyl)sulfanyl]phenyl}-3-(3-fluorophenyl)prop-2-enamide]",103
7,"N#CC(=Cc1csc(-c2ccsc2)n1)C(=O)NC1CC1 [9-N18, 2-cyano-N-cyclopropyl-3-[2-(thiophen-3-yl)-1,3-thiazol-4-yl]prop-2-enamide]",110
8,"Cc1cn2c(C=C(C#N)C(=O)Nc3c(C)cccc3C)c(C)nc2s1 [9-N19, 2-cyano-3-{2,6-dimethylimidazo[2,1-b][1,3]thiazol-5-yl}-N-(2,6-dimethylphenyl)prop-2-enamide]",94.4
9,"CC(C)Oc1ccccc1C=C(C#N)C(=O)Nc1ccccc1Cl [9-N20, N-(2-chlorophenyl)-2-cyano-3-[2-(propan-2-yloxy)phenyl]prop-2-enamide]",104
10,"Cc1ccc(C=C(C#N)C(=O)Nc2c(Cl)cccc2Cl)o1 [9-N21, 2-cyano-N-(2,6-dichlorophenyl)-3-(5-methylfuran-2-yl)prop-2-enamide]",108
11,"N#C/C(C(=O)Nc1ccc(C(F)(F)F)cc1)=C(/O)C1CC1 [9-N22, (2Z)-2-cyano-3-cyclopropyl-3-hydroxy-N-[4-(trifluoromethyl)phenyl]prop-2-enamide]",82.6
12,"N#CC(=Cc1cccc2ccccc12)C(=O)NC1CC1 [9-O03, 2-cyano-N-cyclopropyl-3-(naphthalen-1-yl)prop-2-enamide]",116
13,"CN(C)c1ccc(C=C(C#N)C(N)=O)cc1 [9-O04, 2-cyano-3-[4-(dimethylamino)phenyl]prop-2-enamide]",118
14,"N#CC(=Cc1ccsc1)C(=O)Nc1ccccc1Cl [9-O05, N-(2-chlorophenyl)-2-cyano-3-(thiophen-3-yl)prop-2-enamide]",150
15,"CCNC(=O)C(C#N)=Cc1c(N2CCOCC2)nc2ccccn2c1=O [9-O06, 2-cyano-N-ethyl-3-[2-(morpholin-4-yl)-4-oxo-4H-pyrido[1,2-a]pyrimidin-3-yl]prop-2-enamide]",137
16,"CCCCNC(=O)C(C#N)=Cc1ccc(Cl)cc1Cl [9-O07, N-butyl-2-cyano-3-(2,4-dichlorophenyl)prop-2-enamide]",69
17,"N#CC(=Cc1cc2ccccc2o1)C(=O)NCc1ccco1 [9-O08, 3-(1-benzofuran-2-yl)-2-cyano-N-[(furan-2-yl)methyl]prop-2-enamide]",114
18,"CCCCNC(=O)C(C#N)=Cc1c(Cl)nc2ccccn12 [9-O09, N-butyl-3-{2-chloroimidazo[1,2-a]pyridin-3-yl}-2-cyanoprop-2-enamide]",129
19,"N#CC(=Cc1ccc(N2CCOCC2)cc1)C(=O)NCC1CCCO1 (stereo not shown) [9-O10, 2-cyano-3-[4-(morpholin-4-yl)phenyl]-N-[(oxolan-2-yl)methyl]prop-2-enamide]",120
20,"Cc1ccc(C=C(C#N)C(=O)NC(C)C)s1 [9-O11, 2-cyano-3-(5-methylthiophen-2-yl)-N-(propan-2-yl)prop-2-enamide]",139
21,"COc1ccc(C=C(C#N)C(=O)Nc2ccc(C)cc2)cc1O [9-O12, 2-cyano-3-(3-hydroxy-4-methoxyphenyl)-N-(4-methylphenyl)prop-2-enamide]",109
22,"CC1=C(C#N)C(=O)N(C2CCS(=O)(=O)C2)C(=O)C1=Cc1ccco1 (stereo not shown) [9-O13, 1-(1,1-dioxo-1lambda6-thiolan-3-yl)-5-[(furan-2-yl)methylidene]-4-methyl-2,6-dioxo-1,2,5,6-tetrahydropyridine-3-carbonitrile]",99
23,"N#CC(=Cc1cnn(Cc2ccccc2)c1)C(=O)NC1CCCC1 [9-O14, 3-(1-benzyl-1H-pyrazol-4-yl)-2-cyano-N-cyclopentylprop-2-enamide]",80.2
24,"CCc1cccc(CC)c1NC(=O)C(C#N)=Cc1ccc(C#N)cc1 [9-O15, 2-cyano-3-(4-cyanophenyl)-N-(2,6-diethylphenyl)prop-2-enamide]",36.5
